Test results published in ChEMBL document CHEMBL4177704, “Synthesis and biological evaluation of water-soluble derivatives of chiral gossypol as HIV fusion inhibitors targeting gp41” (Bioorg Med Chem Lett, 2018).
“And” between values parts separate entries of the source, which are not always exact repeats. Equal values may be shown once.

Columns and labels:
[1] = tested on: Human immunodeficiency virus 1; experiment: Antiviral activity against X4R5 tropic HIV-1 93TH051 expressing Env subtype E infected in human PBMC assessed as reduction in p24 expression levels after 4 days by ELISA; format: functional, organism-based; conditions: Human immunodeficiency virus 1, 93TH051, PBMC, 96 h
[2] = biological target: Envelope glycoprotein gp160 (Human immunodeficiency virus 1, UniProt Q6QLK5); experiment: Inhibition of HIV gp41 6-helix bundle formation preincubated with C34 and N36 for 30 mins
Chain of Envelope glycoprotein gp160 (Q6QLK5 whole entry): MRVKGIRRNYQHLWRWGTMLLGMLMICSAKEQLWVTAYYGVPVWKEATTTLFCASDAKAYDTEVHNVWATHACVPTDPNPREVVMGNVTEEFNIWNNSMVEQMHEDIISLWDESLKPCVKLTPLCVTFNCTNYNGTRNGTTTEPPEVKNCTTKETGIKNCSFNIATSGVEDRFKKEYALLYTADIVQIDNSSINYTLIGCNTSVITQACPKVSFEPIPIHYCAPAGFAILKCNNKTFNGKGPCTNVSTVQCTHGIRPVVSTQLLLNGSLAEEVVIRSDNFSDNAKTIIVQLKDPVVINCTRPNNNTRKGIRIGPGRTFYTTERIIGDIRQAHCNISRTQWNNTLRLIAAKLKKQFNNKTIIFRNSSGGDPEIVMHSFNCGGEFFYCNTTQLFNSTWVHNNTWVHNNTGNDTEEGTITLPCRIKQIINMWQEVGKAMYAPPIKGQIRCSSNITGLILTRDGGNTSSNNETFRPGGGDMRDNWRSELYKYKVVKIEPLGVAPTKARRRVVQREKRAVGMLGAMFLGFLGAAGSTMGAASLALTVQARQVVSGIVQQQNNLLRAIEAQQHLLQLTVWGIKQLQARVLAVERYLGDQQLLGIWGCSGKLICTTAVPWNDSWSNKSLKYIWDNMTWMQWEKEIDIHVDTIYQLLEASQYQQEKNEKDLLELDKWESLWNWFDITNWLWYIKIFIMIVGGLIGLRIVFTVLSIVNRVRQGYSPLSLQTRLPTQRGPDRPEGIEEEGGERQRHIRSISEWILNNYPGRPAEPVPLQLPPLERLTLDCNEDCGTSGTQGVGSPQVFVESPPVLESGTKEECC

[3] = tested on: Human immunodeficiency virus 1; experiment: Antiviral activity against HIV-1 3B infected in human TZM-bl cells treated for 2 hrs followed by compound washout measured after 2 days by luciferase reporter assay; format: functional, organism-based
[4] = Spermicidal activity against mouse sperm assessed as motility of sperm at 100 uM after 1 hr by hemocytometric analysis; format: ADME
TZM = experiment: Cytotoxicity against human TZM-bl cells after 72 hrs by MTT assay; format: cell-based; conditions: tzm, 72 h
[5] = Selectivity index, ratio of CC50 for human TZM-bl cells to IC50 for HIV-1 3B infected in human TZM-bl cells; format: toxicity, cell-based

IC50 [1] | IC50 [2] | IC50 [3] | Structure (SMILES) | Activity [4] | CC50 (TZM) | Ratio CC50/IC50 [5] | selectivity ratio ([5]; TZM-bl cells, read-out: Ratio CC50/IC50)
1.72 µM | 7.87 µM | 1.43 µM | Cc1cc2c(c(O)c1-c1c(C)cc3c(c1O)/C(=C/NC(C)C(=O)NC(C)C(=O)[O-])C(=O)C(O)=C3C(C)C)/C(=C/NC(C)C(=O)NC(C)C(=O)[O-])C(=O)C(O)=C2C(C)C.[Na+].[Na+] (single isomer, unassigned; (-)) | Non-Toxic | 35.7 µM | 24.99 | –
1.22 µM | 6.36 µM | 0.72 µM | Cc1cc2c(c(O)c1-c1c(C)cc3c(c1O)/C(=C/N[C@@H]1[C@@H](O)[C@H](O)[C@@H](CO)O[C@H]1O)C(=O)C(O)=C3C(C)C)/C(=C/N[C@@H]1[C@@H](O)[C@H](O)[C@@H](CO)O[C@H]1O)C(=O)C(O)=C2C(C)C (stereo in doubt; (-)-1a) | Non-Toxic | 23.1 µM | 32.12 | –
1.56 µM | 7.34 µM | 1.17 µM | Cc1cc2c(c(O)c1-c1c(C)cc3c(c1O)/C(=C/NC(C)S(=O)(=O)[O-])C(=O)C(O)=C3C(C)C)/C(=C/NC(C)S(=O)(=O)[O-])C(=O)C(O)=C2C(C)C.[Na+].[Na+] (single isomer, unassigned; (-)) | Non-Toxic | 37.8 µM | – | 32.3
– | – | – | Cc1cc2c(C(C)C)c(O)c(O)c(C=O)c2c(O)c1-c1c(C)cc2c(C(C)C)c(O)c(O)c(C=O)c2c1O [GOSSYPOL] | Toxic | 18.1 µM and 5.22 µM | – | –
